Values of other authors, collected in patent US20140154783A1, “BIOPROCESSING” (priority 2009, published 2014).

Tests used:
[1] = test system: influenza A (avian plague virus); settings: high concentrations; chick embryo fibroblasts infected with influenza A (avian plague virus); Klenk et al. 1972
neuraminidase = settings: influenza-infected MDCK cells; Barrere et al. 1997; read-out: Ki, reversible inhibition of neuraminidase

| Compound | formation of hemagglutinin, neuraminidase, and mature virions [1] | Ki (neuraminidase) [µM] |
| --- | --- | --- |
| O=CC[C@@H](O)[C@H](O)[C@H](O)CO [2-deoxy-D-glucose] | inhibited |  |
| COc1cc(C(F)F)ccc1OC1(C(=O)O)CC(O)C(NC(C)=O)C(C(O)C(O)CO)O1 (stereo not drawn) [4-difluoromethyl-2-methoxy-phenyl-α-ketoside of N-acetylneuraminic acid] |  | 80 |
| N[C@H]1C(O)O[C@H](CO)[C@@H](O)[C@@H]1O (stereo partly drawn) [D-glucosamine] | inhibited |  |
